Biological target: T1, PR-B progesterone receptor (Homo sapiens, UniProt P06401)
T1 sequence (P06401 1-933): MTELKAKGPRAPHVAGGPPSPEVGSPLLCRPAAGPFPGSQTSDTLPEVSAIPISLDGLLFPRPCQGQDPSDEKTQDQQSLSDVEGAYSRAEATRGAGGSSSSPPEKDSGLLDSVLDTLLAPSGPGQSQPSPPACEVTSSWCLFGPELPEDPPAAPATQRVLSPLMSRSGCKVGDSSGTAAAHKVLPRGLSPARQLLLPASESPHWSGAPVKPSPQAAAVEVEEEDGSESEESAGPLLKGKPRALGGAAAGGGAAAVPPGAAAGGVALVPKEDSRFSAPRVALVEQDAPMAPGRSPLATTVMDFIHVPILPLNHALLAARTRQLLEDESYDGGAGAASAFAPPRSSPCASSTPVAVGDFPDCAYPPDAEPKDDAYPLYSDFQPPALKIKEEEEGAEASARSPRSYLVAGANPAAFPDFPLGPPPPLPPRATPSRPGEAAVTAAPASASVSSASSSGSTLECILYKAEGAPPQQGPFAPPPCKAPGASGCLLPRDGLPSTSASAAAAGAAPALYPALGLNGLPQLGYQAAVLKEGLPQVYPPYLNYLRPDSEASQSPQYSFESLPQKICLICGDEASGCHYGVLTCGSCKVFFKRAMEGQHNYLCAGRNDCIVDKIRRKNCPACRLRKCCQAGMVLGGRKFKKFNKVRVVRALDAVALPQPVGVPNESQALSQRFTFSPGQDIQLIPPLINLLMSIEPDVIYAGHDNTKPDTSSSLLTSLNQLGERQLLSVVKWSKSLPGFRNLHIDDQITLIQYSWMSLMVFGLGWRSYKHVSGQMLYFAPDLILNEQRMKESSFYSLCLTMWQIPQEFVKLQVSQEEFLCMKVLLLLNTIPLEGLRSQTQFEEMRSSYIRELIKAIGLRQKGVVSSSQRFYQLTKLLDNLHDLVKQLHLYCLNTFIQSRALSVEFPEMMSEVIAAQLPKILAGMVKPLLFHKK
Experiment: Antagonism at the PR-B progesterone receptor (transactivation assay)
Assay type: cell-based
Protocol: Antagonism at the PR-B Progesterone Receptor
The transactivation assay is carried out as described in WO 02/054064.

For `Cc1noc(=O)c2ccc(NC(=O)C(O)(Cc3ccccc3)CC(C)(C)c3ccccc3)cc12` (centres unmarked) [compound 88], the “Antagonistic activity Efficacy” value (transactivation assay as in WO 02/054064) was 100% and the IC50 (transactivation assay as in WO 02/054064, read-out: Antagonistic activity IC50) was 0.3 nM.
